Source: paper PMC5543150, “Antimalarial troponoids, puberulic acid and viticolins; divergent synthesis and structure-activity relationship studies” (Scientific Reports, 2017)
Values after ≈ are worked out from the molar mass of the structure shown. Where two headings read alike, the source gives them in different places.

How the values were obtained:
[1] = system: Plasmodium falciparum K1 (chloroquine-resistant) parasite strain; assay: In vitro antimalarial assay (p-LDH, 72 h) against Plasmodium falciparum K1 strain; format: cell-based; details: for IC50: Plasmodium falciparum; for fold better IC50 than those of 7 and 37: relative to 7 and 37
Description: Briefly, the P. falciparum K1 strain was cultured in human erythrocytes in RPMI medium supplemented with 10% human plasma at 37 °C, under 93% N2, 4% CO2, and 3% O2. Asynchronous parasites (2% hematocrit and 0.5 or 1% parasitaemia) were seeded in a 96-well microtiter plate and serially diluted test compounds were added. […] After 72-hours incubation, parasite lactate dehydrogenase (p-LDH) was assayed using a slight modification of the procedure reported by Makler et al.[31] and Vivas et al.[32]. The 50% inhibitory concentration (IC50) value was calculated from a dose response curve. This study was approved by “Kitasato Institute Hospital Research Ethics Committee (No12102)” using human erythrocytes donated by volunteers.
3. Biological evaluation of synthesized derivatives
3-1. In vitro cultivation of Plasmodium falciparum and the antimalarial assay In vitro cultivation and antimalarial activity against the Plasmodium falciparum […]
previously1). Briefly, the P. falciparum K1 strain was cultured in human erythrocytes in RPMI medium supplemented with 10% human plasma at 37 °C, under 93% N2, 4% CO2, and 3% O2. Asynchronous parasites (2% hematocrit and 0.5 or 1% parasitaemia) were seeded in a 96-well microtiter plate and serially diluted test compounds were added.
After 72-hours incubation, parasite lactate dehydrogenase (p-LDH) was assayed using a slight modification of the procedure reported by Makler et al2) and Vivas et al3). The 50% inhibitory concentration (IC50) value was calculated from a dose response curve.
This study was approved by “Kitasato Institute Hospital Research Ethics Committee (No12102)” using human erythrocytes donated by volunteers.
(§1) 3-2. Cytotoxic assay against MRC-5 cells
Measurement of cytotoxicity against human fetal lung fibroblast MRC-5 cells was carried out as described previously4).
1) K. Otoguro, A. Kohana, C. Manabe, A. Ishiyama, H. Ui, K. Shiomi, H. Yamada, S. […]
2) M. T. Makler, J. M. Ries, J. A. Williams, J. E. Bancroft, R. C. Piper, B. L. Gibbins, […]
D. J. Hinrichs, Am. J. Med. Hyg. 1993, 48, 739-741.
3) L. Vivas, A. Easton, H. Kendrick, A. Cameron, J.-L. Lavandera, D. Barros, F. G. de las Heras, R. L. Brady, S. L. Croft, Exper. Parasitol. 2005, 111, 105-114.
4) K. Otoguro, H. Ui, A. Ishiyama, N. Arai, M. Kobayashi, Y. Takahashi, R. Masuma, K. Shiomi, H. Yamada, S. Ōmura, J. Antibiot. 2003, 56, 322-324.

[2] = Cytotoxic assay against MRC-5 cells; details: human
Description: Measurement of cytotoxicity against human fetal lung fibroblast MRC-5 cells was carried out as described previously.
3. […]
as §1
Measurement of cytotoxicity against human fetal lung fibroblast MRC-5 cells
was carried out as described previously4). […]
4) K. Otoguro, H. Ui, A. Ishiyama, N. Arai, M. Kobayashi, Y. Takahashi, R. Masuma,
K. Shiomi, H. Yamada, S. Ōmura, J. Antibiot.

[3] = system: Plasmodium falciparum K1 (chloroquine-resistant) parasite strain; details: natural products and simple troponoids, previously reported, cited from earlier work; for IC50 Antimalarial activity (K1 strain) / Selectivity index MRC-5/K1: Table S1; for IC50: read-out: IC50, antimalarial activity against Plasmodium falciparum K1 strain
[4] = system: human fetal lung fibroblast MRC-5 cells; set-up: method as in earlier work; details: Table S1; natural products and simple troponoids, previously reported; cited from earlier work
P. berghei = system: P. berghei; set-up: method as in PMID 21063422, PMID 24713875; details: 2 mg/kg × 4, subcutaneous (s.c.), 4-day suppressive test; cited from earlier work
[5] = set-up: method as in PMID 21063422, PMID 24713875; details: s.c. dose of 5 mg/kg × 2 (day 0 and 1), by day 3; cited from earlier work
[6] = K1, Table S1, synthesized compounds and positive controls, read-out: IC50 Antimalarial activity (K1 strain)
[7] = K1, synthesized derivatives, in vitro, read-out: IC50 Antimalarial activity (K1 strain)
[8] = Table S1, synthesized compounds and positive controls
[9] = MRC-5 cells (fetal lung fibroblasts), IC50 Cytotoxicity (MRC-5), Table S1, synthesized compounds and positive controls
[10] = MRC-5 cells (fetal lung fibroblasts), IC50 Cytotoxicity (MRC-5), synthesized derivatives
[11] = MRC-5 cells (fetal lung fibroblasts), IC50 cytotoxicity (MRC-5)

O=C(O)c1cc(O)c(O)c(=O)c(O)c1 [Compound 1, puberulic acid]
IC50 [1, 6]: 0.0087 µg/mL
IC50 [1, 7]: 44 ± 2.9 nM
Selectivity index MRC-5/K1 [1, 8]: 480.46
IC50 [2, 9]: 4.18 µg/mL
IC50 [2, 10]: 289000 nM
IC50 Antimalarial activity (K1 strain) [3]: 0.01 µg/mL (≈ 0.0505 µM)
Selectivity index MRC-5/K1 [3]: 5720
IC50 [3]: 50 nM
IC50 Cytotoxicity (MRC-5) [4]: 57.20 µg/mL (≈ 289 µM)
in vivo efficacy, inhibition (P. berghei): 69%
toxicity in vivo, mice dying [5]: four out of five

O=C(O)c1cc(O)cc(=O)c(O)c1 [Compound 2, stipitatic acid]
IC50 Antimalarial activity (K1 strain) [3]: 7.07 µg/mL (≈ 38.8 µM)
Selectivity index MRC-5/K1 [3]: > 14
IC50 Cytotoxicity (MRC-5) [4]: > 100 µg/mL

COc1c(O)cc(C(=O)O)cc(O)c1=O [Compound 3, viticolin A]
melting point: 227 °C
IC50 Antimalarial activity (K1 strain) [3]: 9.92 µg/mL (≈ 46.8 µM)
Selectivity index MRC-5/K1 [3]: > 10
IC50 [3]: 46800 nM
IC50 Cytotoxicity (MRC-5) [4]: > 100 µg/mL

COc1cc(C(=O)O)cc(O)c(OC)c1=O [Compound 4, viticolin B]
IC50 Antimalarial activity (K1 strain) [3]: 0.84 µg/mL (≈ 3.71 µM)
Selectivity index MRC-5/K1 [3]: 8.08
IC50 [3]: 3710 nM
IC50 Cytotoxicity (MRC-5) [4]: 6.79 µg/mL (≈ 30 µM)

O=c1cccccc1 [Compound 5, tropone, reference compound]
IC50 Antimalarial activity (K1 strain) [3]: > 12.50 µg/mL
IC50 [3]: > 118000 nM

O=c1cccccc1O [Compound 6, tropolone, reference compound]
IC50 Antimalarial activity (K1 strain) [3]: 2.74 µg/mL (≈ 22.4 µM)
IC50 [3]: 22400 nM

O=c1c(O)ccccc1O [Compound 7, 7-hydroxytropolone, reference compound]
fold stronger IC50 value than that of 5 ([1]; K1 strain, relative to tropone (5)): > 18 fold
IC50 Antimalarial activity (K1 strain) [3]: 0.89 µg/mL (≈ 6.44 µM)
Selectivity index MRC-5/K1 [3]: 0.27
IC50 [3]: 6440 nM
IC50 Cytotoxicity (MRC-5) [4]: 0.24 µg/mL (≈ 1.74 µM)

CC(C)c1cccc(=O)c(O)c1 [Compound 8, hinokitiol, reference compound]
IC50 Antimalarial activity (K1 strain) [3]: 4.92 µg/mL (≈ 30 µM)
Selectivity index MRC-5/K1 [3]: 1.20
IC50 [3]: 30000 nM
IC50 Cytotoxicity (MRC-5) [4]: 5.80 µg/mL (≈ 35.3 µM)

CC1(C)Oc2cc(C=O)cc(O)c(=O)c2O1 [Compound 23]
IC50 [1, 6]: > 12.5 µg/mL
IC50 [1, 7]: > 56000 nM

CC1(C)Oc2cc(C(=O)O)cc(O)c(=O)c2O1 [Compound 24]
IC50 [1, 6]: > 12.5 µg/mL
IC50 [1, 7]: > 50000 nM

COC(=O)c1cc2c(c(OC)c(=O)c1)OC(C)(C)O2 [Compound 25]
IC50 [1, 6]: > 12.5 µg/mL
IC50 [1, 7]: > 47000 nM

COC(=O)c1cc2c(c(=O)c(OC)c1)OC(C)(C)O2 [Compound 26]
IC50 [1, 6]: > 12.5 µg/mL
IC50 [1, 7]: > 47000 nM

COc1c2c(cc(C(=O)O)cc1=O)OC(C)(C)O2 [Compound 27]
IC50 [1, 6]: > 12.5 µg/mL
IC50 [1, 7]: > 50000 nM

COc1cc(C(=O)O)cc2c(c1=O)OC(C)(C)O2 [Compound 28]
IC50 [1, 6]: > 12.5 µg/mL
IC50 [1, 7]: > 50000 nM

COc1cc(C(=O)O)cc(O)c(=O)c1O [Compound 29, Iso-viticolin A]
fold stronger activity than viticolin A (3) ([1]; K1 strain, relative to viticolin A (3)): approximately 100 fold
IC50 [1, 6]: 0.073 µg/mL
IC50 [1, 7]: 340 ± 22 nM
Selectivity index MRC-5/K1 [1, 8]: 162.33
IC50 [2, 9]: 11.8 µg/mL
IC50 [2, 10]: 55800 nM

O=c1c(O)ccc(CO)cc1O [Compound 37, 4-Hydroxymethyl-7-hydroxytropolone]
IC50 [1, 6]: 0.728 µg/mL
IC50 [1, 7]: 4330 ± 30 nM
Selectivity index MRC-5/K1 [1, 8]: 0.0008
IC50 [2, 9]: 0.00057 µg/mL
IC50 [2, 10]: 3.4 nM
IC50 [2, 11]: 3.39 nM
melting point: 144 °C (dec.)

COCc1ccc(O)c(=O)c(O)c1 [Compound 38, 4-Methoxymethyl-7-hydroxytropolone]
fold better IC50 than those of 7 and 37 ([1]; K1 strain): approximately 2 fold
IC50 [1, 6]: 0.38 µg/mL
IC50 [1, 7]: 2090 ± 27 nM
Selectivity index MRC-5/K1 [1, 8]: 0.0006
IC50 [2, 9]: 0.00024 µg/mL
IC50 [2, 10]: 1.3 nM
IC50 [2, 11]: 1.32 nM

O=C(O)c1ccc(O)c(=O)c(O)c1 [Compound 40, Iso-stipitatic acid]
fold better IC50 than those of 7 and 37 ([1]; K1 strain): approximately 2 fold
IC50 [1, 6]: 0.387 µg/mL
IC50 [1, 7]: 2120 ± 110 nM
Selectivity index MRC-5/K1 [1, 8]: 47.82
IC50 [2, 9]: 18.6 µg/mL
IC50 [2, 10]: 102000 nM

O=c1c(O)cc(CO)cc(O)c1O [Compound 42, 4-Hydroxymethyl-6,7-dihydroxytropolone]
IC50 [1, 6]: 0.038 µg/mL
IC50 [1, 7]: 210 ± 3.3 nM
Selectivity index MRC-5/K1 [1, 8]: 0.115
IC50 [2, 9]: 0.00435 µg/mL
IC50 [2, 10]: 24 nM
melting point: 162 °C

COCc1cc(O)c(O)c(=O)c(O)c1 [Compound 43, 4-Methoxymethyl-6,7-dihydroxytropolone]
IC50 [1, 6]: 0.044 µg/mL
IC50 [1, 7]: 220 ± 1.6 nM
Selectivity index MRC-5/K1 [1, 8]: 0.041
IC50 [2, 9]: 0.00181 µg/mL
IC50 [2, 10]: 91 nM
melting point: 120 °C

[N-]=[N+]=NCc1cc(O)c(O)c(=O)c(O)c1 [Compound 44, 4-Azidomethyl-6,7-dihydroxytropolone]
IC50 [1, 6]: 0.096 µg/mL
IC50 [1, 7]: 460 ± 53 nM
IC50 [2, 9]: 0.00073 µg/mL
IC50 [2, 10]: 3.5 nM

C[C@@H]1CC[C@H]2[C@@H](C)C(=O)O[C@@H]3O[C@@]4(C)CC[C@@H]1[C@]32OO4 [artemisinin, reference compound]
IC50 [1, 6]: 0.0057 µg/mL
Selectivity index MRC-5/K1 [1, 8]: 7.925
IC50 ([2]; IC50 Cytotoxicity (MRC-5)): 45.2 µg/mL

CCN(CC)CCCC(C)Nc1ccnc2cc(Cl)ccc12 (centres unmarked) [chloroquine, reference compound]
IC50 ([1]; K1, read-out: IC50 Antimalarial activity (K1 strain)): 0.18 µg/mL
IC50 [2]: 18.6 µg/mL
